The text below walks through data of publication PMC8949533, “Aurasperone A Inhibits SARS CoV-2 In Vitro: An Integrated In Vitro and In Silico Study” (Marine Drugs, 2022).

Like-named read-outs stand apart in the source and are kept apart here.

Common to all, as to format: cell-based
Series [1] concerns SARS-CoV-2 virus (hCoV-19/Egypt/NRC-03/2020). As to the kind of experiment: microbe, parasite or virus in culture.
Another series in a line: MTT cytotoxicity assay. The following applies: African green monkey. How it is done:
(§1) To assess the half maximal cytotoxic concentration (CC50), stock solutions of the test compounds were prepared in 10% DMSO in ddH2O and diluted further to the working solutions with DMEM. The cytotoxic activity of the extracts was tested in Vero E6 cells by using the 3-(4,5-dimethylthiazol-2-yl)-2,5-diphenyltetrazolium bromide (MTT) method with minor modifications. Briefly, the cells were seeded in 96-well plates (100 µL/well at a density of 3 × 10^5 cells/mL) and incubated for 24 h at 37 °C in 5%CO2. After 24 h, cells were treated with various concentrations of the tested compounds in triplicates. 24 h later, the supernatant was discarded, and cell monolayers were washed with sterile 1x phosphate buffer saline (PBS) 3 times and MTT solution (20 µL of 5 mg/mL stock solution) was add to each well and incubated at 37 °C for 4 h followed by medium aspiration. In each well, the formed formazan crystals were dissolved with 200 µL of acidified isopropanol (0.04 M HCl in absolute isopropanol = 0.073 mL HCL in 50 mL isopropanol). Absorbance of formazan solutions was measured at λ max 540 nm with 620 nm as a reference wavelength using a multi-well plate reader. The percentage of cytotoxicity compared to the untreated cells was determined with the following equation.

Another series deals with Vero E6 cells. As to the kind of experiment: MTT cytotoxicity assay. The following applies: Vero E6 cells, MTT, 24 h treatment. As for the experimental part: as §1
(Tetrazolium dyes change colour on reduction, which living cells bring about.)

The mark [2] stands for this setting: Severe acute respiratory syndrome coronavirus 2, Vero C1008, 72 h, read-out: IC50 against SARS-CoV-2.
The mark [3] stands for this setting: Vero E6 cells, MTT, 24 h treatment, read-out: CC50.
Setting [4] is: Vero E6 cells, MTT, 24 h treatment, read-out: CC50 (Figure 2).
The mark [5] stands for this setting: Severe acute respiratory syndrome coronavirus 2, Vero C1008, 72 h, read-out: IC50 against SARS-CoV-2 (Figure 2).

For orientation: IC50 means the point on the concentration scale where inhibition reaches its midpoint. The CC50 is the concentration that lowers cell viability or growth by half. Take `COc1cc(OC)c2c(O)c3c(=O)cc(C)oc3c(-c3c(OC)cc(OC)c4c(O)c5c(=O)cc(C)oc5cc34)c2c1` [Rubasperone B (6), rubasperone B]: the IC50 in series [1] (Severe acute respiratory syndrome coronavirus 2, Vero C1008, Vero E6 cells infected with hCoV-19/Egypt/NRC-03/2020, 72 h, read-out: IC50 against SARS-CoV-2 (Figure 2)) was determined as 105 µM. In “MTT cytotoxicity assay”, this compound gave a half-maximal cytotoxic concentration (CC50) at 24 h of 181 µM.
For the compound `COc1cc(OC)c2c(O)c3c(=O)cc(C)oc3c(-c3c(OC)cc4cc5oc(C)cc(=O)c5c(O)c4c3OC)c2c1` [Aurasperone A (3), aurasperone A], the “selectivity index (SI = CC50/IC50)” value in series [1] is listed as 2641.5. The IC50 in series [1] (setting [2]) was determined as 12.2 µM. The 50% cytotoxic concentration (CC50) at 24 h in “MTT cytotoxicity assay” (setting [3]) and in “MTT cytotoxicity assay” (setting [4]) was 32400 µM throughout.
In the case of `COc1cc(OC)c2c(c1)cc(O)c1c(=O)cc(C)oc12` [Flavasperone (1), flavasperone], the IC50 in series [1] (setting [5]) amounted to 204 µM. In addition, the CC50 at 24 h in “MTT cytotoxicity assay” (setting [4]) amounted to 189 µM.
For `COc1cc(OC)c2c(O)c3c(=O)cc(C)oc3c(-c3c(OC)cc4cc(O)c5c(=O)cc(C)oc5c4c3OC)c2c1` [Fonsecinone A (4), fonsecinone A], the “selectivity index (SI = CC50/IC50)” value in series [1] is 4.7. Moreover, the half-maximal inhibitory concentration (IC50) in series [1] (setting [2]) worked out at 61.1 µM; in series [1] (setting [5]), 61.6 µM. In addition, the half-maximal cytotoxic concentration (CC50) at 24 h in “MTT cytotoxicity assay” (setting [4]) was found to be 288 µM.
In the case of `CCC(CC)COC(=O)[C@H](C)N[P@](=O)(OC[C@H]1O[C@@](C#N)(c2ccc3c(N)ncnn23)[C@H](O)[C@@H]1O)Oc1ccccc1` [remdesivir, reference compound], the “selectivity index (SI = CC50/IC50)” value in series [1] (CC50 in Vero E6 cells / IC50 against SARS-CoV-2) turned out to be 41.07. The IC50 in series [1] (Severe acute respiratory syndrome coronavirus 2, Vero C1008, Vero E6 cells infected with hCoV-19/Egypt/NRC-03/2020, 72 h, CPE reduction by 50%, read-out: IC50 against SARS-CoV-2) amounted to 10.1 µM. The CC50 with Vero E6 cells was determined as 415 µM. For the same compound, the CC50 at 24 h in “MTT cytotoxicity assay” (setting [3]) is 415 µM.
